Assay results from patent publication US7625948B2, “Ester compound and medicinal use thereof” (Japan Tobacco Inc., priority 2002, dated 2009).
Where two headings read alike, the source gives them in different places.

What was measured:
[1] = Test Example 6: determination of the concentration in plasma (unchanged form and metabolite, orbital venous plexus and portal vein, LC/MS); type: in vivo; conditions: hamster, oral, Syrian hamsters; for concentration at 1 h: 1 h after 30 mg/kg p.o.; for concentration at 2 h: 2 h after 30 mg/kg p.o.; for concentration at 4 h: 4 h after 30 mg/kg p.o.
Description: Determination of the Concentration in Plasma Syrian hamsters (9-15 weeks of age) under non-fasted conditions were used in the test. A sample was suspended in 0.5% methyl cellulose (vehicle), and the suspension was forced to be administered orally to the hamsters at a dose of 30 or 100 mg/2 mL/kg. After a fixed period of time, blood was partly collected from orbital venous plexus, and the hamsters were subjected to laparotomy under ether anesthesia, and then blood was collected from portal vein. The blood was immediately cooled with ice to separate plasma. A portion of the plasma was extracted with an organic solvent and the supernatant was recovered. Concentration of the sample (unchanged form) and that of the metabolite in the supernatant were determined quantitatively by high performance liquid chromatography/mass spectrometry (LC/MS) comparing with chromatogram of synthetic standard.

[2] = tested on: Japanese white rabbits; assay: Test Example 5: combination use test in cholesterol-loaded rabbit model (plasma cholesterol); type: in vivo; conditions: 10 mg/kg in high cholesterol diet, from grouping to the 4th day
Description: Japanese white rabbits (male, 19 weeks of age, JW, purchased from Kitayama Labes Co., Ltd.) were fed previously in such a way that they were fed a high cholesterol diet (0.3% cholesterol+3% peanut oil-added RC-4, Product of Oriental Yeast Co., Ltd.) of 70 g/day under limited feeding for one day. The rabbits thus fed were used as a cholesterol-loaded rabbit model, and the grouping of such model was carried out in such a way that there might be no variation in the amount of plasma cholesterol among each group (five rabbits/group). […] The rabbits were fed 70 g of each diet every morning. Blood was collected from auricular artery 6 hours after the feeding on the 4th day of the administration, and cholesterol level in plasma was assayed. In the table, increased amount of plasma cholesterol during from the time of grouping to the 4th day was shown.

[3] = Test Example 7: metabolic stability test in human liver S9; type: in vitro ADME; conditions: human liver S9, 2 mg protein/mL, 37° C.
Description: (§1) Metabolic Stability Test in Liver S9 and Small Intestine S9
(§2) Human and hamster liver S9 (final concentration: 2 mg protein/mL), and human and hamster small intestine S9 (final concentration: 2 mg protein/mL) were each suspended in 100 mM potassium phosphate buffer (pH 7.4, containing β-nicotinamide adenine dinucleotide phosphate: 1.3 mM, D-glucose-6-phosphate: 3.3 mM, magnesium chloride: 3.3 mM, glucose-6-phosphate dehydrogenase: 0.4 U/mL). The suspensions were mixed with a solution of a sample (Example 2-5) in DMSO. The solutions were incubated at 37° C. for 0, 10 and 60 minutes, and an organic solvent was added thereto. The solutions were centrifuged, and the concentration of the sample (unchanged form) in the supernatant was determined by high performance liquid chromatography/mass spectrometry (LC/MS). Based on the data obtained, remaining rate (%) was calculated according to the following equation.
(§3) Remaining rate(%)=amount of sample 10 or 60 minutes after incubation/amount of sample at zero time after incubation×100

[4] = Test Example 7: metabolic stability test in hamster liver S9; type: in vitro ADME; conditions: hamster liver S9, 2 mg protein/mL, 37° C.
Description: as §1, §2, §3

[5] = Test Example 7: metabolic stability test in human small intestine S9; type: in vitro ADME; conditions: human small intestine S9, 2 mg protein/mL, 37° C.
Description: as §1, §2, §3

[6] = Test Example 7: metabolic stability test in hamster small intestine S9; type: in vitro ADME; conditions: hamster small intestine S9, 2 mg protein/mL, 37° C.
Description: as §1, §2, §3

[7] = tested on: Syrian hamsters; assay: Test Example 3: olive oil-loading test (inhibition of fat absorption, plasma TG); type: in vivo; conditions: Mesocricetus auratus, po; 100 mg/kg p.o.; plasma TG 4 hours after olive oil; read-out: Test Example 3 Inhibition of fat absorption after olive oil-loading in Hamster Inhibition rate (%)
[8] = plasma from peripheral blood (orbital venous plexus), read-out: Concentration in plasma, unaltered form, peripheral blood
[9] = plasma from portal vein blood, read-out: Concentration in plasma, unaltered form, blood of portal vein

SMILES	concentration at 1 h [1, 8] [nM]	concentration at 2 h [1, 8] [nM]	concentration at 4 h [1, 8] [nM]	concentration at 1 h [1, 9] [nM]	concentration at 2 h [1, 9] [nM]	concentration at 4 h [1, 9] [nM]	Remaining rate (%) after 10 min. ([3]; 10 min) [%]	Remaining rate (%) after 60 min. ([3]; 60 min) [%]	Remaining rate (%) after 10 min. ([4]; 10 min) [%]	Remaining rate (%) after 60 min. ([4]; 60 min) [%]	Remaining rate (%) after 10 min. ([5]; 10 min) [%]	Remaining rate (%) after 60 min. ([5]; 60 min) [%]	Remaining rate (%) after 10 min. ([6]; 10 min) [%]	Remaining rate (%) after 60 min. ([6]; 60 min) [%]	Increased amount of total cholesterol [2] [mg/dL]	inhibition in vivo at 100 mg/kg [7] [%]
CCOC(=O)C(COC(=O)Cc1ccc(OC(=O)c2ccccc2-c2ccc(C(F)(F)F)cc2)cc1)(C(=O)OCC)c1ccccc1 [Example 1-2, 2-Phenyl-2-{2-[4-(4′-trifluoromethylbiphenyl-2-carbonyloxy)phenyl]acetoxymethyl}malonic acid diethyl ester]	< 200	< 200	< 200	< 200	< 200	< 200	–	–	–	–	–	–	–	–	–	–
CCNC(=O)C(COC(=O)Cc1ccc(NC(=O)c2ccccc2-c2ccc(C(F)(F)F)cc2)cc1)(C(=O)NCC)c1ccccc1 [Example 1, 4-[(4′-Trifluoromethylbiphenyl-2-carbonyl)amino]phenyl-acetic acid 2,2-bisethylcarbamoyl-2-phenylethyl ester]	–	–	–	–	–	–	–	–	–	–	–	–	–	–	–	57
CCCNC(=O)C(COC(=O)Cc1ccc(NC(=O)c2ccccc2-c2ccc(C(F)(F)F)cc2)cc1)(C(=O)NCCC)c1ccccc1 [Example 1-35]	–	–	–	–	–	–	–	–	–	–	–	–	–	–	–	59

Second part, led by results:

concentration at 1 h [1, 8] [nM]	concentration at 2 h [1, 8] [nM]	concentration at 4 h [1, 8] [nM]	concentration at 1 h [1, 9] [nM]	concentration at 2 h [1, 9] [nM]	concentration at 4 h [1, 9] [nM]	Remaining rate (%) after 10 min. ([3]; 10 min) [%]	Remaining rate (%) after 60 min. ([3]; 60 min) [%]	Remaining rate (%) after 10 min. ([4]; 10 min) [%]	Remaining rate (%) after 60 min. ([4]; 60 min) [%]	Remaining rate (%) after 10 min. ([5]; 10 min) [%]	Remaining rate (%) after 60 min. ([5]; 60 min) [%]	Remaining rate (%) after 10 min. ([6]; 10 min) [%]	Remaining rate (%) after 60 min. ([6]; 60 min) [%]	SMILES	Increased amount of total cholesterol [2] [mg/dL]	inhibition in vivo at 100 mg/kg [7] [%]
< 20	< 20	< 20	10	30	10	7.9	4.3	2.4	0	97.6	91.5	29.0	14.1	CCOC(=O)C(COC(=O)Cc1ccc(NC(=O)c2ccccc2-c2ccc(C(F)(F)F)cc2)c(C(=O)N(C)C)c1)(C(=O)OCC)c1ccccc1 [Example 2-5]	8.6	–
< 200	< 200	< 200	< 200	< 200	< 200	–	–	–	–	–	–	–	–	COC(=O)C(COC(=O)Cc1ccc(NC(=O)c2ccccc2-c2ccc(C(F)(F)F)cc2)cc1)(C(=O)OC)c1ccccc1 [Example 1-13]	–	–
< 200	< 200	< 200	< 200	< 200	< 200	–	–	–	–	–	–	–	–	O=C(Cc1ccc(NC(=O)c2ccccc2-c2ccc(C(F)(F)F)cc2)cc1)OCC(C(=O)NCC(F)(F)F)(C(=O)NCC(F)(F)F)c1ccccc1 [Example 1-12]	–	–
